Our source for the melting point values is a melting point compilation (Tetko et al.; mined from patent text by program, amines drawn as free bases though some values may be those of a salt).

Where only a bound is given, the exact number is not on record here.

Broadly, the melting point is the temperature, or range, at which the solid turns liquid. `Cc1nnc(-c2ccc3occ(C(=O)NCCC(N)=O)c3c2)o1` came in with a melting point of 242 to 243 °C.

`c1cnc2[nH]c(C3CCNC3)cc2c1` (configuration not stated): the melting point lay within 130 to 133 °C.

In turn, `CC(Br)c1cc2ccccc2s1` (configuration not stated) returned a melting point of 53 °C.

On to `Cc1cnc2c(NC(=O)c3ccccc3[N+](=O)[O-])ccc(C)c2c1-n1ccnc1`, for which the melting point was in the range of 231 to 233 °C.

`O=c1oc2cc(Cl)cnc2n1CCl` gave a melting point of 105 to 107 °C.

In turn, `CC(C)[Si](C#Cc1ccc2cc3c(cc2c1)Cc1cc2cc(C#C[Si](C(C)C)(C(C)C)C(C)C)ccc2cc1C3)(C(C)C)C(C)C` displayed a melting point of 73 to 75 °C.

`CC1=CC(O)C(OC(=O)c2ccccc2Cl)C(C)(C)CC1=O` (configuration not stated) had a melting point of 92.5 to 94 °C.

As to `CCOCc1nc2c(N)nc3ccccc3c2n1CCCCS(=O)(=O)NCc1ccc(OC)cc1`, the melting point amounted to 101 °C.

In turn, `N#Cc1c(N)oc2c(-c3ccccc3)cccc2c1=O` showed a melting point of 217 to 219 °C.

`COc1cc(C(C#Cc2c(C)nc(N)nc2N)OC)cc(OC)c1OC` (configuration not stated): the melting point was in the range of 127 to 129 °C.

`Cc1[nH]c(C(=O)Nc2ccc3c(c2)OCCO3)c(C)c1-c1nc2ccc(C(=O)c3ccccc3)cc2[nH]1` gave a melting point of 145 to 147 °C.

In turn, `C[C@]1(COc2ccc(N3CCN(Cc4ccc(OC(F)(F)F)cc4)CC3)cc2)Cn2cc([N+](=O)[O-])nc2O1` came in with a melting point of 214 to 217 °C.

Consider `CCOc1ccc(-c2c(C)c3cc(O)ccc3n2Cc2ccc(OCCN3CCCCCC3)cc2)cc1`, for which the melting point was 133 to 135 °C.

The compound `CCOCCOc1ccc(-c2ccc3c(c2)C=C(C(=O)O)CCN3S(C)(=O)=O)cc1` yielded a melting point of 222 to 225 °C.

`Brc1cccc(Sc2ccccc2)n1` gave a melting point of 47 °C.

For `Nc1c(Nc2ccon2)cnc2c1COCC2`, the melting point was 209 to 211 °C.

On to `N#CCCNC(=O)c1cccc(-c2ccnc3cc(Cc4cccc(C(F)(F)F)c4)nn23)c1`, for which the melting point is 153 to 154 °C.

Regarding `CC(=O)OC1C(C)OC(Oc2nc[nH]c2C(N)=O)C(OC(C)=O)C1OC(C)=O` (configuration not stated), the melting point was 184 to 186 °C.

Regarding `COc1cc(C(=O)O)ccc1Cc1cn(C(C)C(=O)N(C)C)c2ccc(C(=O)NCC3CCCC3)cc12` (configuration not stated), the melting point is 146 to 147 °C.

Compound `CN(Cc1cc2c3c(c1)c(=O)c(C(=O)NCc1ccc(Cl)cc1)cn3CC(=O)N2C)C[C@@H](O)c1ccsc1` yielded a melting point of 137 to 139 °C.

For the compound `Sc1nnc(-c2cc3c(Oc4ccc(Cl)cc4)cncc3s2)o1`, the melting point lay in the range of 236 to 240 °C.

Take `CSc1nc(=O)n(Cc2ccccc2)c2ncn(COCc3ccccc3)c12`: the melting point was in the range of 194 to 195 °C.

Consider `O=C(Cc1c(-c2cccnc2)c2cc(CN3CCN(c4ccccc4)CC3)c(Cl)cc2oc1=O)Nc1ccc(Cl)cc1C(F)(F)F`, for which the melting point is 214 to 216 °C.

`CNc1nc2c(Cc3cccnc3)c(C)c(O)c(C)c2s1` registered a melting point of 236 to 238 °C.

Compound `COC(=O)c1ccsc1COc1ccc(CCCCO)cc1` showed a melting point of 58 to 60 °C.

Regarding `COC(=O)c1ccc2ncccc2c1C(=O)OC`, the melting point was in the range of 124 to 125 °C.

Take `COc1ccc(C(=O)C2=C(O)C(=O)N(c3nnc(C)s3)C2c2ccc(OC(F)(F)F)cc2)cc1` (configuration not stated): the melting point is 245 to 247 °C.

In turn, `COc1ccc(-c2cc(Cl)c3ccc(OC)cc3n2)cc1` returned a melting point of 99 to 101 °C.

Regarding `CC(C)(C)SCc1c(-c2ccc(S(C)(=O)=O)cc2)cnn(-c2ccc(F)cc2)c1=O`, the melting point lay within 50 to 70 °C.

In turn, `CCSc1nc(=O)n(C(=O)Nc2cccc(Cl)c2)s1` had a melting point of 168 °C.

For `CNCC1Cc2cc(OC)cc(-c3cc(OC)ccc3OC)c2O1` (configuration not stated), the melting point fell in the range of 144 to 145 °C.

With `O=c1[nH]c(=O)n(COC(CO)CO)cc1Cc1cccc(OCc2ccccc2)c1`, the melting point was 113 °C.

In turn, `O=C(O)c1cc([N+](=O)[O-])cs1` had a melting point of 110 to 118 °C.

`CC(C)(C)OC(=O)c1ccc(C=NO)cc1` registered a melting point of 113 to 114 °C.

As for `CCCn1nc2c(N)nc3ccccc3c2c1CC(C)(C)NC(=O)C1CCCCC1`, the melting point is 190 to 191 °C.

`O=C(c1ccc(F)cc1)C1CCN(CCN2C(=O)Nc3ccc(Cl)cc3C2c2ccccc2)CC1` (configuration not stated) yielded a melting point of 196 °C.

Regarding `CNC(=C[N+](=O)[O-])NCc1ccc(Cl)nc1`, the melting point was 181 to 183 °C.

`CSC(N)=C(C#N)C#N` returned a melting point of 228 to 229 °C.

Take `CC(C)(C)c1csc(-c2cc3cc(CO)ccc3o2)n1`: the melting point was 143 to 144 °C.

Consider `O=C(NNS(=O)(=O)c1ccccc1)c1ccc2c(c1)CCO2`, for which the melting point was 181 to 183 °C.

In turn, `O=C(CCl)Nc1ccc(NNC(=O)c2ccccc2CO)cc1` had a melting point of 172 to 173 °C.

Turning to `COC12CC(C)(C)C(O1)C(O)C=C2C` (configuration not stated), the melting point lay within 52 to 54 °C.

`O=C(OCCCCl)c1ccc([N+](=O)[O-])cc1[N+](=O)[O-]` had a melting point of 40 °C.

In turn, `CCOC(=O)c1cnc2nc(C)c(OCC)cc2c1Cl` showed a melting point of more than 250 °C.

`CCN(CC)CCNC(=O)c1c2ccccc2nc2ccc(I)cc12` displayed a melting point of 83 to 85 °C.

For `NC(N)=NC(=O)Cc1c(-c2ccccc2Cl)csc1-c1ccc(OCCc2cn[nH]c2)cc1`, the melting point was 71 to 72 °C.

In the case of `O=C1[C@H]2CCCC[C@H]2Nc2ccccc2N1Cc1ccccc1` (relative stereo), the melting point lay within 164 to 166 °C.

Turning to `COc1ccc(S(=O)(=O)Nc2cccnc2Nc2cccc(F)c2)cc1`, the melting point fell in the range of 180 to 181 °C.

On to `CCOc1nn(Cc2ccc(Cl)cc2Cl)cc1CCCO`, for which the melting point lay within 58 to 59 °C.

With `NC(=O)c1nccn1C1Sc2ccccc2C1=O` (configuration not stated), the melting point was determined as 180 °C.

For the compound `CCNc1ccc(C(=O)OC)cc1`, the melting point lay within 132 to 135 °C.

In turn, `Cc1cccc(C)c1NC(=O)CN1CCN(c2ncnc3sccc23)C(C)C1` (configuration not stated) yielded a melting point of 184 to 185 °C.

Regarding `O=C(Nc1ccc(-n2nc(C(F)(F)F)cc2C(F)(F)F)cc1)c1ccc(F)c(Cl)c1`, the melting point fell in the range of 138 to 139 °C.

`CC(=O)Nc1ccc(S(=O)(=O)CCCl)cc1` gave a melting point of 188 °C.

The compound `CN1C(=O)CC[C@]2(C)c3ccc(-c4ccc5c(c4)CCC5O)cc3CC[C@@H]12` (some centres not stated) displayed a melting point of 185 to 190 °C.

`c1ccc2oc3cnnc-3cc2c1` registered a melting point of 215 °C.

`CCCCCCCCCCCCCCCCC(C(=O)OC(C)(C)C)C(=O)c1ccc(C(=O)OC(C)C)c(Cl)c1` (configuration not stated) displayed a melting point of 44 °C.

In turn, `COc1cc2cc3c(=O)c(C#N)c[nH]c3cc2cc1OCc1ccccc1` yielded a melting point of more than 300 °C.

In the case of `O=S(=O)(c1ccc(F)cc1)C(F)(F)C(F)(F)C(F)(F)C(F)(F)C(F)(F)C(F)(F)C(F)(F)C(F)(F)S(=O)(=O)c1ccc(F)cc1`, the melting point lay in the range of 109 to 110 °C.

Consider `CCOc1ccc([N+](=O)[O-])c(Nc2ccc(C(C)C)cc2)c1`, for which the melting point was determined as 100 °C.

`COc1ccc(-c2c3nn(-c4ccc(OC)cc4)c(=O)c-3c[nH]c2C)cc1` displayed a melting point of 274 to 282 °C.

Take `Oc1ccc2nc(-c3cccc(O)c3O)oc2c1`: the melting point fell in the range of 256 to 258 °C.

Turning to `Cc1nnc(-c2ccc3occ(-c4ccc(C(=O)N5CCOCC5)c(F)c4)c3c2)o1`, the melting point lay within 167 to 168 °C.

Compound `CNc1nc(Cl)c(OC(F)F)c(OC)n1` showed a melting point of 49 to 53 °C.

`COc1ccc(C(=O)c2ccc(OCc3nc(-c4ccccc4)oc3C)cc2)c(OC(C(=O)O)C(C)C)c1` (configuration not stated) showed a melting point of 87 to 88 °C.

The compound `CCCCC(=O)N(CCOCc1ccccc1)Cc1ccc(-c2ccccc2-c2nnn[nH]2)cc1` registered a melting point of 109 to 110 °C.

`Oc1cc2cc(-c3ccccc3Cl)sc2c(Cl)c1Cl` showed a melting point of 174 to 175 °C.

`O=C(Nc1ccncc1)C1=C(O)CCn2c1nc1ccccc12` came in with a melting point of 274 to 276 °C.

With `CSc1ccc(CCCOCCCCCCNCC(O)c2ccc(O)c(F)c2)cc1` (configuration not stated), the melting point is 66 to 67 °C.

`N#Cc1ccc(NC(=O)c2ccnc(SCc3ccc(F)cc3)c2)cc1` came in with a melting point of 160 to 162 °C.

Consider `CC(=O)N1CCSC1Cc1cnn(-c2ccccc2)c1-c1ccc(Cl)cc1` (configuration not stated), for which the melting point was 121 to 122 °C.

As for `CN1C(=O)Cc2cc3ccccc3cc2S1(=O)=O`, the melting point was in the range of 126 to 127 °C.

The compound `COc1ccc(CN2C(=O)C3CCCC3=Nc3ccccc32)cc1` (configuration not stated) showed a melting point of 128 to 131 °C.

Regarding `CCC(=O)NCCC1CCc2cc(F)c3c(c21)C=CCO3` (configuration not stated), the melting point fell in the range of 106 to 108 °C.

Compound `NCC(c1cccc(OCc2ccccc2)c1)C1CCCCC1O` (mixture of isomers) gave a melting point of 139 to 141 °C.

As for `Nc1c(Br)cc(Br)cc1S(N)(=O)=O`, the melting point is 165 to 169 °C.

The compound `CNC(=O)CCSSCCC(=O)NC` returned a melting point of 113 to 115 °C.

Compound `Cc1[nH]n(Cc2cc([N+](=O)[O-])ccc2Cl)c2nc(-c3ccncc3)nc(=O)c1-2` returned a melting point of 290 to 291 °C.

`COc1ccc(CN(C)CCCSc2ccc(NC(=O)c3cccc4c(=O)c5cccc(C)c5[nH]c34)cc2)cc1OC` registered a melting point of 158 °C.

In turn, `Nc1ccc(N2CCN(c3ccccc3OCC3COC(Cn4cncn4)(c4ccc(Cl)cc4Cl)O3)CC2)cc1` (configuration not stated) came in with a melting point of 187 °C.

The compound `O=C(CCc1cc(-c2ccccc2)nc2ccccc12)N1CCCCC1` returned a melting point of 110 °C.

`Cc1cccc(-c2sc(N)nc2-c2ccnc(-c3ccc(C(=O)NC4CCOCC4)cc3)c2)n1` gave a melting point of 283 °C.

`COc1ccccc1NS(=O)(=O)c1ccc(NC2=C(Cl)C(=O)c3ccccc3C2=O)cc1` displayed a melting point of 198 to 201 °C.

`COC(=O)Cc1cc2c(c([N+](=O)[O-])c1)N(C(C)=O)CC2` gave a melting point of 136 to 137 °C.

For `CC(C)c1cc(OCCO)cc2c1C(=O)N(COc1nc3ccccn3c(=O)c1Cl)S2(=O)=O`, the melting point lay within 214 to 216 °C.

`O=c1c2cc(F)c(N3CCCC3)nc2n(C2CC2)c(=O)n1OCc1ccccc1` gave a melting point of 184 to 186 °C.

For `COc1ccc(-n2ncc(C(N)=O)c2N)cc1`, the melting point lay in the range of 213 to 215 °C.
